# Laboratory results reported in patent US20100129434A1, “COMPOSITIONS AND METHODS FOR THE TREATMENT OF MUCORMYCOSIS AND OTHER FUNGAL DISEASES” (priority 2006, published 2010).
# Assays:
# R. oryzae = assay: Survival of neutropenic mice infected with R. oryzae; type: in vivo
# Method: For in vivo infection, BALB/c male mice (>20 g) were rendered diabetic with a single i.p. injection of 210 mg/kg streptozotocin in 0.2 ml citrate buffer 10 days prior to fungal challenge. […] For neutropenic mouse model, mice were injected with a single i.p. dose of 200 mg/kg cyclolphosphamide (Bristol Myer Squibb) 2 days prior to infection with R. oryzae. […] Mice were infected through the tail vein with the appropriate inocula of R. oryzae. To confirm the inocula, dilutions were streaked on PDA plates containing 0.1% triton and colonies were counted following a 24 h incubation period at 37° C. The primary efficacy endpoint was time to death. As a secondary endpoint, brain fungal burden (the primary target organ) was determined by homogenization by rolling a pipette on organs placed in Whirl-Pak™ bags (Nasco®, Fort Atkinson, Wis.) containing 1 ml saline. The homogenate was serially diluted in 0.85% saline and then quantitatively cultured on PDA. Values were expressed as log10 cfu g−1 tissue. Finally, for histopathological analysis, infected organs were collected from mice and fixed in 10% zinc formalin. Fixed tissues were embedded in paraffin, and […] sections were stained with haematoxylin and eosin for light microscopy examination. All procedures involving mice were approved by the institutional animal use and care committee, following the National Institutes of Health guidelines for animal housing and care.
# Two days later, mice were infected via the tail-vein with 2.7×10^3 spores of R. oryzae 99-892.
# [1] = test system: Th1/Th2 and inflammatory cytokine responses; assay: Splenic lymphocyte frequency and whole organ cytokines in infected DKA mice; type: in vivo
# Method: Splenic lymphocyte frequencies were determined as we have previously described (Spellberg et al., Infect. Immun. 71:5756-5764 (2003)). In brief, splenic homogenates were passed through 70 μm filters followed by RBC lysis with 0.15 M ammonium chloride. The cells were fixed with Cytofix™ buffer (BD Pharmingen®), permeabilized with Cytoperm™ buffer (BD Pharmingen), and stained with 10 μg/ml of FITC-conjugated anti-mouse CD4 (clone RM4-5), PE-conjugated anti-mouse IFN-γ (clone XMG1.2) or isotype control (clone R-34), allophycocyanin (APC)-conjugated anti-mouse IL-4 (clone 11B11) or isotype control (clone R3-34), or APC-conjugated anti-mouse IL-10 (clone JES5-16E3) or isotype control (clone A95-1) (all from BD Pharmingen). In separate experiments, the frequency of CD4+CD25+foxp3+T-regulatory cells were determined using the Mouse Regulatory T cell Staining™ Kit (eBioscience®) per the manufacturer's recommendation. The frequency of apoptosis was determined using the Annexin FITC Apoptosis™ kit (BD Pharmingen®).
# Cells were washed and three-color flow cytometry was performed on a Becton-Dickinson FACScan™ instrument calibrated with CaliBRITE™ beads (BD Pharmingen) using FACSComp™ software as per the manufacturer's recommendations. During data acquisition, CD4+lymphocytes were gated by concatenation of forward and side scatter, and FITC-anti-CD4 antibody fluorescence properties. Data for each sample were acquired until 10,000 CD4+lymphocytes were analyzed.
# Spleens and kidneys were homogenized in 1 ml of PBS. The homogenates were pelleted at maximum speed on a tabletop centrifuge at 4° C. The supernatants were assayed for cytokines using the Cytometric Bead Array Murine Inflammatory Cytokine™ kit (BD Pharmingen) per the manufacturer's instructions.
# Because of the alterations in inflammatory cellular influx seen in kidneys of mice treated with saturating ferric chloride vs. iron chelation, in this example we determined the impact of deferasirox therapy on Th1/Th2 and inflammatory cytokine responses in infected mice. Diabetic ketoacidotic mice were infected with 3.1×10^4 spores of R. oryzae 99-892 as above and treated with deferasirox, deferasirox plus ferric chloride, or placebo. On day four of infection, spleens and kidneys were processed for intracellular and whole organ cytokine determination.
# [2] = test system: rhinocerebral mucormycosis; assay: Salvage therapy of a patient with rhinocerebral mucormycosis (case); type: in vivo, human; conditions: one patient
# Method: A person with diabetic ketoacidosis presented to the emergency department of an outside hospital with polyuria, polydipsia, left retrobulbar pain, and a left cranial nerve (CN) VI palsy. […] The patient progressed to complete left opthalmoplegia in the first 24 hours. Rhinocerebral mucormycosis was suspected, and they were started on amphotericin B lipid complex (ABLC) at 5 mg/kg/day, along with empiric antibacterial agents, for treatment of sinusitis. On hospital day 2 they underwent endoscopic sphenooethmoid exploration. […] Bacterial culture grew only rare Enterobacter aerogenes.
# Over the next twelve days, the patient developed blindness and worsening proptosis in the left eye. He was continued on ABLC and no further surgery was performed.
# The patient was transferred to our institution for further management on hospital day 14. Immediately upon arrival, he underwent left orbital exenteration with enucleation and extensive sinus debridement and resection. Intraoperative findings included an ischemic globe with extensive surrounding necrosis of the extraocular muscles.
# Antifungal therapy was continued. […] Given the location of the lesion at the superficial aspect of the pons, a dose of intracisternal amphotericin was administered, but the patient refused further doses. The patient remained clinically and neurologically unchanged. […]
# [3] = R. oryzae 99-892, between the groups
# [4] = R. oryzae 99-892, vs saturating iron or placebo
smiles,measurement,setting,value
"O=C(O)c1ccc(-n2nc(-c3ccccc3O)nc2-c2ccccc2O)cc1 [Deferasirox, 4-[3,5-Bis(2-hydroxyphenyl)-1H-1,2,4-triazol-1-yl]-benzoic acid]",time to death compared to placebo,"R. oryzae; 2.7×10^3 spores R. oryzae 99-892, 10 mg/kg twice qod, five doses from 24 h post infection",significantly improved time to death
same,time to death versus placebo,"R. oryzae; R. oryzae 99-892, dosed twice daily",did not significantly improve time to death
same,Th1 and Th2 splenocyte frequencies,"[1]; 3.1×10^4 spores R. oryzae 99-892, day four, vs saturating ferric chloride or placebo",significant increase
same,kidney level of IFN-γ,[1]; R. oryzae 99-892,significantly higher
same,frequencies of CD4+IL-10+ or CD4+CD25+foxp3+ splenocytes,[1]; [3],not significantly different
same,splenocyte apoptosis,[1]; [3],no significant difference
same,splenic level of IFN-γ,[1]; [4],significantly higher
same,splenic level of TNF,[1]; [4],significantly higher
same,repeat MRI of the brain,"[2]; 1000 mg po daily seven days, LAmB continued, one week after treatment",resolution of the edema in the left cerebellar peduncle
same,radiographic outcome,[2]; after 7 days of treatment,substantial radiographic improvement
